# Key:
# Test in all cases: biochemical
# Parameters in all cases: KINOMEscan competition binding panel, per cent of control
# Conditions in all cases: read-out: %Ctrl @ 2800nM
# INSR = INSR (Homo sapiens, UniProt P06213)
# Method in brief: (§1)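 Competition binding panel (KINOMEscan) across 450 human kinases and disease-relevant mutants, run to the contractor's standard protocol. Values are % control: (test signal − positive control signal)/(negative control signal − positive control signal) × 100, with lower values indicating stronger binding.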
# CAMK2B = CAMK2B (Homo sapiens, UniProt Q13554)
# Method in brief: as §1
# DMPK = DMPK (Homo sapiens, UniProt Q09013)
# DMPK, sequence (Q09013 whole entry): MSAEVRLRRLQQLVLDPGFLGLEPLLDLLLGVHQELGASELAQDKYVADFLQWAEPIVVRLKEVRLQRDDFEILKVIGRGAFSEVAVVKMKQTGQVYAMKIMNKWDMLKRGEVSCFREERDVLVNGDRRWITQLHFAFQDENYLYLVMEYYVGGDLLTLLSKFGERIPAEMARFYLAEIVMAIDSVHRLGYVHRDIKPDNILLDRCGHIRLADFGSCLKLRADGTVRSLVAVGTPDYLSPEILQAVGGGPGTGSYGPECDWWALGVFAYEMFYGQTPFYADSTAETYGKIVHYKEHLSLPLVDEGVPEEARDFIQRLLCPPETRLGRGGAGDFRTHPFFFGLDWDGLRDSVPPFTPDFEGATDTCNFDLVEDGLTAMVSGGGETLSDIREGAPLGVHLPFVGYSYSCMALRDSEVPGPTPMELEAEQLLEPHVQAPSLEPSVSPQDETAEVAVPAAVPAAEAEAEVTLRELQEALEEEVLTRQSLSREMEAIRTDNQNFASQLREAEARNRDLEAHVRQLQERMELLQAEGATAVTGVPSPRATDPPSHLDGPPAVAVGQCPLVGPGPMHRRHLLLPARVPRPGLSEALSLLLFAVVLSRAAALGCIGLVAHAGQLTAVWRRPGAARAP
# Method in brief: as §1
# CSNK1D = CSNK1D (Homo sapiens, UniProt P48730)
# Method in brief: as §1
# EGFR(S752-I759del) = EGFR(S752-I759del) (Homo sapiens, UniProt P00533, DEL752-759)
# Method in brief: as §1
# TLK1 = TLK1 (Homo sapiens, UniProt Q9UKI8)
# Method in brief: as §1
# IKK-alpha = target: T1, IKK-alpha (Homo sapiens, UniProt O15111)
# T1 construct: gene CHUK
# Method in brief: as §1
# NEK5 = NEK5 (Homo sapiens, UniProt Q6P3R8)
# Method in brief: as §1
# BUB1 = BUB1 (Homo sapiens, UniProt O43683)
# Method in brief: as §1
# TGFBR2 = TGFBR2 (Homo sapiens, UniProt P37173)
# Method in brief: as §1
# FYN = FYN (Homo sapiens, UniProt P06241)
# Method in brief: as §1
# EGFR(L747-T751del,Sins) = EGFR(L747-T751del,Sins) (Homo sapiens, UniProt P00533, DEL747-750/T751S)
# Method in brief: as §1
# NEK3 = NEK3 (Homo sapiens, UniProt P51956)
# Method in brief: as §1
# CSNK1A1 = CSNK1A1 (Homo sapiens, UniProt P48729)
# CSNK1A1, sequence (P48729 whole entry): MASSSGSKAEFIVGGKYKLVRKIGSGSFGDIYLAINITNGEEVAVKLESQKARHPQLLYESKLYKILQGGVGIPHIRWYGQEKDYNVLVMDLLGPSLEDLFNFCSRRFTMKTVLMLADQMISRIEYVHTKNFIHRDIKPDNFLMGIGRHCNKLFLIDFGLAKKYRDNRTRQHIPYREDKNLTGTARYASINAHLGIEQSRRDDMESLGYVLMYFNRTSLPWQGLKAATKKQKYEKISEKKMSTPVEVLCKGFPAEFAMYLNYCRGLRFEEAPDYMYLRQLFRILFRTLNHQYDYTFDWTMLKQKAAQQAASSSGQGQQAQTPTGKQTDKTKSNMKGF
# Method in brief: as §1
# FRK = FRK (Homo sapiens, UniProt P42685)
# Method in brief: as §1
# ERK1 = target: T2, ERK1 (Homo sapiens, UniProt P27361)
# T2 construct: gene MAPK3
# T2 sequence (P27361 whole entry): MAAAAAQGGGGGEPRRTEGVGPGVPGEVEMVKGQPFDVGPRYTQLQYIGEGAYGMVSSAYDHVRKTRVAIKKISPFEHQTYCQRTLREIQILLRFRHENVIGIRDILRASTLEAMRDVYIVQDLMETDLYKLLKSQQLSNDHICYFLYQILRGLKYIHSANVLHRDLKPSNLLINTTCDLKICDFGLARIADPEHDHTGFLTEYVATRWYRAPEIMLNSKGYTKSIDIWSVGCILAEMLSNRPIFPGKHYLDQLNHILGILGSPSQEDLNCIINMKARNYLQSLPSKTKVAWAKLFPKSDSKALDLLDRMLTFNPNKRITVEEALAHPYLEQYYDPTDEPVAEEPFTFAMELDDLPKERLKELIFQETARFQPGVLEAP
# Method in brief: as §1
# HIPK1 = HIPK1 (Homo sapiens, UniProt Q86Z02)
# Method in brief: as §1
# CDK11 = target: T3, CDK11 (Homo sapiens, UniProt Q9BWU1)
# T3 construct: gene CDK19
# Method in brief: as §1
# MAP4K3 = MAP4K3 (Homo sapiens, UniProt Q8IVH8)
# MAP4K3, sequence (Q8IVH8 whole entry): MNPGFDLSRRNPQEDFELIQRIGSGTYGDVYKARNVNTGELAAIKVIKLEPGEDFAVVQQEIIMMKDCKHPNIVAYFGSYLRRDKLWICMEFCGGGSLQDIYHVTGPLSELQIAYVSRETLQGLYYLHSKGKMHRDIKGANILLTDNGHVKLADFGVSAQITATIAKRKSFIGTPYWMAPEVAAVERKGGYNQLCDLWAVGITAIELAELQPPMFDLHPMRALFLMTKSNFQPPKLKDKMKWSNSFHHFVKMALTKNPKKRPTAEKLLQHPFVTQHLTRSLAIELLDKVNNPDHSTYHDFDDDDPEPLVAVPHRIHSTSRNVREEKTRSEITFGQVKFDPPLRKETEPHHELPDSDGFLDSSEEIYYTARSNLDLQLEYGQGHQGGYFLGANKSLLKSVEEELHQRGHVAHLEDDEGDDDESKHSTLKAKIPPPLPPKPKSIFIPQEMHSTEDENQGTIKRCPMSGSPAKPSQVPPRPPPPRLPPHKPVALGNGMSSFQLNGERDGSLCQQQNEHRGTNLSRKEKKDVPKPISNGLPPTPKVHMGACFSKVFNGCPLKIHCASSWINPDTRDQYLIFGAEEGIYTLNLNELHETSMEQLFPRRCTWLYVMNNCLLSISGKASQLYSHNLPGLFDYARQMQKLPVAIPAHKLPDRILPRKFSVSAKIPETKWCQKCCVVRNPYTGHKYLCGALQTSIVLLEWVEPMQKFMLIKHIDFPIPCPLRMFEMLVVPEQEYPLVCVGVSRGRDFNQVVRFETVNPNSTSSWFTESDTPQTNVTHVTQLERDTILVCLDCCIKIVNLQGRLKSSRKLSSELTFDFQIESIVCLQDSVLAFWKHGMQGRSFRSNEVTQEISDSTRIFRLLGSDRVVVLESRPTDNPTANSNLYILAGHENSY
# Method in brief: as §1
# LKB1 = target: T4, LKB1 (Homo sapiens, UniProt Q15831)
# T4 construct: gene STK11
# Method in brief: as §1
# LZK = target: T5, LZK (Homo sapiens, UniProt O43283)
# T5 construct: gene MAP3K13
# T5 sequence (O43283 whole entry): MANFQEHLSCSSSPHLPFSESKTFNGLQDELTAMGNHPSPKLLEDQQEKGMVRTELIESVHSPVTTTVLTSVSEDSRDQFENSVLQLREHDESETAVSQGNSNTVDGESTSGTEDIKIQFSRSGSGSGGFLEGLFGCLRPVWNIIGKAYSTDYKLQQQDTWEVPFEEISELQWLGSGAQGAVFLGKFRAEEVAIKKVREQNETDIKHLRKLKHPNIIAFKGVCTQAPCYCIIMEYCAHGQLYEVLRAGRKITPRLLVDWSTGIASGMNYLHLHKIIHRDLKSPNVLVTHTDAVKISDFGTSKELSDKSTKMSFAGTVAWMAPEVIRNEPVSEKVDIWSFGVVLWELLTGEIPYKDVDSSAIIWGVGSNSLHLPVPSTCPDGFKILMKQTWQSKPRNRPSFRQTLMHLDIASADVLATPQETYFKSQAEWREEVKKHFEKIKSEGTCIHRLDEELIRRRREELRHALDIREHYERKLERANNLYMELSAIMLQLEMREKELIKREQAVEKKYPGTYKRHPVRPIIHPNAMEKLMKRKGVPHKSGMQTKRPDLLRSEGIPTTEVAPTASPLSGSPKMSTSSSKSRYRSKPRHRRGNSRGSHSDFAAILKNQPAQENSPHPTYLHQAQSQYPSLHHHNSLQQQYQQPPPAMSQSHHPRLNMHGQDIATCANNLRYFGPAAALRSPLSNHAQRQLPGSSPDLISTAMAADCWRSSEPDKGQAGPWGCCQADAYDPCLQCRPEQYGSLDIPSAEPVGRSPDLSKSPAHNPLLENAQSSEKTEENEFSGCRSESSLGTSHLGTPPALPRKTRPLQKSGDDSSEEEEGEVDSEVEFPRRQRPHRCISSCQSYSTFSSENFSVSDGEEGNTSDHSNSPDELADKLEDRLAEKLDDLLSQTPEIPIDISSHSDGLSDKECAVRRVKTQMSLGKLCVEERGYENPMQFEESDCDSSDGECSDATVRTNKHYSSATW
# Method in brief: as §1
# MAP4K2 = MAP4K2 (Homo sapiens, UniProt Q12851)
# Method in brief: as §1
# CSK = CSK (Homo sapiens, UniProt P41240)
# Method in brief: as §1
# FLT3(D835H) = FLT3(D835H) (Homo sapiens, UniProt P36888, D835H)
# Method in brief: as §1
# CAMK1G = CAMK1G (Homo sapiens, UniProt Q96NX5)
# CAMK1G, sequence (Q96NX5 whole entry): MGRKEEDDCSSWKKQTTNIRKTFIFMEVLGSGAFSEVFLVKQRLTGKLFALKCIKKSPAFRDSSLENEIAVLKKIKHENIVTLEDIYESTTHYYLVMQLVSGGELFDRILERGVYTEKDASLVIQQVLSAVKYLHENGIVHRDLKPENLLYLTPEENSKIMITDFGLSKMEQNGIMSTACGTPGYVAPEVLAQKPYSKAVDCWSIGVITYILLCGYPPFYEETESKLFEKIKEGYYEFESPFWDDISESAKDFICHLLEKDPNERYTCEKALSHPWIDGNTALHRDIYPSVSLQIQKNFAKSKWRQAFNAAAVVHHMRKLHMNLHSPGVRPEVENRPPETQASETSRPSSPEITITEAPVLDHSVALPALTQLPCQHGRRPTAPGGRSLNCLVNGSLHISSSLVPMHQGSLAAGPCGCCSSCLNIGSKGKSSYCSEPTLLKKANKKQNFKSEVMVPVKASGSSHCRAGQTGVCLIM
# Method in brief: as §1
# AMPK-alpha2 = target: T6, AMPK-alpha2 (Homo sapiens, UniProt P54646)
# T6 construct: gene PRKAA2
# Method in brief: as §1
# INSR, sequence (P06213 whole entry): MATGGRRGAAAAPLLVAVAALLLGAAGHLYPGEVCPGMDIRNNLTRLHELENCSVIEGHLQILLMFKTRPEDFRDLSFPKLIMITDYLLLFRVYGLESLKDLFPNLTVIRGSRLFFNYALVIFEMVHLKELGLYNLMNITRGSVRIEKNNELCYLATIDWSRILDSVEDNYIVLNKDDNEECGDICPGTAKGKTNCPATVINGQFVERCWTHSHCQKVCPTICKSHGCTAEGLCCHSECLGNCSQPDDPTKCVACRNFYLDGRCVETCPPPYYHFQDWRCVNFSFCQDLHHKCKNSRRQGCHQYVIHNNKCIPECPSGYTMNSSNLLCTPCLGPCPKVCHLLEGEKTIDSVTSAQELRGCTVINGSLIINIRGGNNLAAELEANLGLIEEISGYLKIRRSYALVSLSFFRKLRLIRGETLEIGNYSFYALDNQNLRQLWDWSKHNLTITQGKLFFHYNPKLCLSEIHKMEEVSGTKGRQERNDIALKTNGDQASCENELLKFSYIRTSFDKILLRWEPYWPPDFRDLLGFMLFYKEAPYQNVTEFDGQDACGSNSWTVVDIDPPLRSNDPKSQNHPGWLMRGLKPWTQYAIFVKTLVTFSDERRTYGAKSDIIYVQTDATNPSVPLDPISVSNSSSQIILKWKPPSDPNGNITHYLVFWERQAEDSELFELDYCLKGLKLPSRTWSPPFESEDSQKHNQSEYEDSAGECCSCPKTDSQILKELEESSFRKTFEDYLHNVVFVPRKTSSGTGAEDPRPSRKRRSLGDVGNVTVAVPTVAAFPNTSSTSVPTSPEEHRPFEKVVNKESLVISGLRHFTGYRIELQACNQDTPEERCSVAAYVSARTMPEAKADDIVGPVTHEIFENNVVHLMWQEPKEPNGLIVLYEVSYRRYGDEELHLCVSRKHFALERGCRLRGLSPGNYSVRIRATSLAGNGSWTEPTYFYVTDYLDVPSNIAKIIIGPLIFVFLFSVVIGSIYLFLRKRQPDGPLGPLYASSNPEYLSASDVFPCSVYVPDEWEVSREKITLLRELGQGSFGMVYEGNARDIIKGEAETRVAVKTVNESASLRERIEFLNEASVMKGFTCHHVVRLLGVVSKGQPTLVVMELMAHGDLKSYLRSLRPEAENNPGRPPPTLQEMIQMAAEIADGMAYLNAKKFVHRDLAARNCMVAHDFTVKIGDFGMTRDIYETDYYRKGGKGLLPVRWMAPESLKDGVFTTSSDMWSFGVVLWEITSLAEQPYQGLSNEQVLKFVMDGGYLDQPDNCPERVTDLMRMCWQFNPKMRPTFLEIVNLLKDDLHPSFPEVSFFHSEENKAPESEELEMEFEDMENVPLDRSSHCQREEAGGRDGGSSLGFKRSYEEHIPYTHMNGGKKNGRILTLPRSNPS
smiles,measurement,setting,value
"[O-][S@@+](Cc1cncs1)C(c1ccccc1)c1ccccc1 [S-CE-123, (S)-5-((Benzhydrylsulfinyl)Methyl)Thiazole]",remaining binding at 2.8 µM,INSR,100%
same,remaining binding at 2.8 µM,CAMK2B,87%
same,remaining binding at 2.8 µM,DMPK,96%
same,remaining binding at 2.8 µM,CSNK1D,100%
same,remaining binding at 2.8 µM,EGFR(S752-I759del),66%
same,remaining binding at 2.8 µM,TLK1,91%
same,remaining binding at 2.8 µM,IKK-alpha,100%
same,remaining binding at 2.8 µM,NEK5,90%
same,remaining binding at 2.8 µM,BUB1,100%
same,remaining binding at 2.8 µM,TGFBR2,88%
same,remaining binding at 2.8 µM,FYN,93%
same,remaining binding at 2.8 µM,"EGFR(L747-T751del,Sins)",57%
same,remaining binding at 2.8 µM,NEK3,100%
same,remaining binding at 2.8 µM,CSNK1A1,74%
same,remaining binding at 2.8 µM,FRK,96%
same,remaining binding at 2.8 µM,ERK1,91%
same,remaining binding at 2.8 µM,HIPK1,90%
same,remaining binding at 2.8 µM,CDK11,71%
same,remaining binding at 2.8 µM,MAP4K3,100%
same,remaining binding at 2.8 µM,LKB1,100%
same,remaining binding at 2.8 µM,LZK,94%
same,remaining binding at 2.8 µM,MAP4K2,100%
same,remaining binding at 2.8 µM,CSK,98%
same,remaining binding at 2.8 µM,FLT3(D835H),58%
same,remaining binding at 2.8 µM,CAMK1G,82%
same,remaining binding at 2.8 µM,AMPK-alpha2,97%
